Results taken from patent US20230407243A1, “GENETIC PLATFORM TO INVESTIGATE THE FUNCTIONS OF BACTERIAL DRUG EFFLUX PUMPS” (priority 2022, published 2023).
Values after ≈ are worked out from the molar mass of the structure shown. Values joined by “and” are separate entries in the source; they are usually repeats but may differ in a detail not shown here. Equal values may be shown once. Read-outs that look alike come from different tables or passages of the source.

What was measured:
Type in all cases: cell-based, Escherichia coli
[1] = test system: K-12 (empty pCA24N); assay: MIC of strains harboring ASKA plasmids; conditions: K-12 empty pCA24N, 0.1 mM IPTG
[2] = test system: ΔtolC (empty pCA24N); assay: microbe, parasite or virus in culture; conditions: ΔtolC empty pCA24N, 0.1 mM IPTG
[3] = test system: EKO-35 wcaC (pCA24N); assay: MIC of strains harboring ASKA plasmids; conditions: EKO-35 wcaC, 0.1 mM IPTG
[4] = test system: EKO-35 pitA (pCA24N); assay: MIC of strains harboring ASKA plasmids; conditions: EKO-35 pitA; Chlor −; 0.1 mM IPTG
[5] = test system: EKO-35 yjfC (pCA24N); assay: MIC of strains harboring ASKA plasmids; conditions: EKO-35 yjfC, 0.1 mM IPTG
[6] = test system: EKO-35; conditions: for PABN MICa Alone: PAβN alone, one value per checkerboard
Procedure, shortened: (§1)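 Checkerboard broth microdilution in MHB II followed CLSI guidelines, with MIC defined as the lowest concentration giving no growth by OD600. FICI was calculated as CA/MICA + CB/MICB for PAβN or NMP combined with an antibiotic, with <0.5 classed as synergistic. Efflux-attributed fold resistance is the strain MIC divided by the EKO-35 MIC.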

[7] = test system: wild-type E. coli K-12; conditions: K-12
Procedure, shortened: as §1

[8] = test system: ΔtolC-Pore; conditions: ΔtolC Pore; for PABN MICa Alone: PAβN alone, one value per checkerboard
Procedure, shortened: as §1

[9] = test system: EKO-35 strains producing different efflux pumps (EKO-35 araC::X); assay: Checkerboard synergy (FICI) of PAβN or NMP with antibiotics; conditions: for Effect / FICI: PAβN + antibiotic; for MICb Alone: antibiotic alone (PAβN checkerboard); for MICb Combined: antibiotic in combination with PAβN; for PABN MICa Alone: PAβN alone, one value per checkerboard
Procedure, shortened: as §1

[10] = test system: EKO-35 porinated strain expressing acrB; assay: Checkerboard synergy (FICI), porinated strain; conditions: EKO-35 acrB Pore
Procedure, shortened: as §1

[11] = test system: EKO-35-Pore acrBD408A (functionally inactive AcrB variant); assay: Checkerboard synergy (FICI), porinated strain; conditions: EKO-35 acrBD408A Pore
Procedure, shortened: as §1

[12] = test system: EKO-35-Pore; assay: Checkerboard synergy (FICI), porinated strain
Procedure, shortened: as §1

[13] = test system: wild-type K-12-Pore; assay: Checkerboard synergy (FICI), porinated strain; conditions: K-12 Pore
Procedure, shortened: as §1

[14] = Escherichia coli, Chlor + (25 μg/mL chloramphenicol), read-out: MIC
[15] = Escherichia coli, Chlor −, read-out: MIC
[16] = efflux-deficient strains EKO-35, EKO-35 acrBD408A, ΔtolC
[17] = antibiotic alone (PAβN checkerboard)
[18] = antibiotic in combination with PAβN

benzalkonium chloride
MIC ([1]; Chlor + (25 μg/mL chloramphenicol)): 25 µg/mL | MIC ([1]; Chlor −): 25 µg/mL | MIC ([2]; Chlor +): 0.781 µg/mL | MIC ([2]; Chlor −): 1.56 µg/mL | MIC ([3]; Chlor + (4 μg/mL)): 0.391 µg/mL | MIC ([3]; Chlor −): 0.781 µg/mL | MIC [4]: 0.781 µg/mL | MIC ([5]; Chlor + (4 μg/mL)): 0.781 µg/mL | MIC ([5]; Chlor −): 0.781 µg/mL

COc1cc(Cc2cnc(N)nc2N)cc(OC)c1OC [trimethoprim]
MIC [1, 14]: 0.781 µg/mL | MIC [1, 15]: 0.781 µg/mL | MIC ([2]; Escherichia coli, Chlor +): 1.56 µg/mL (≈ 5.37 µM) | MIC ([2]; Escherichia coli, Chlor −): 0.195 µg/mL (≈ 0.672 µM) | MIC ([3]; Chlor + (4 μg/mL)): 0.781 µg/mL | MIC [3, 15]: 0.781 µg/mL | MIC ([5]; Chlor + (4 μg/mL)): 0.391 µg/mL

CO[C@@H]1[C@@H](OC(N)=O)[C@@H](O)[C@H](Oc2ccc3c(O)c(NC(=O)c4ccc(O)c(CC=C(C)C)c4)c(=O)oc3c2C)OC1(C)C [novobiocin]
MIC [1, 14]: 200 µg/mL | MIC ([2]; Escherichia coli, Chlor +): 1.56 µg/mL (≈ 2.55 µM) | MIC ([2]; Escherichia coli, Chlor −): 3.13 µg/mL (≈ 5.11 µM) | MIC ([3]; Chlor + (4 μg/mL)): 1.56 µg/mL | Effect ([6]; EKO-35, PAβN + antibiotic): Synergistic | FICI ([6]; EKO-35, PAβN + antibiotic): 0.375 | MICb Alone ([6]; EKO-35, antibiotic alone (PAβN checkerboard)): 4 µg/mL | MICb Combined ([6]; EKO-35, antibiotic in combination with PAβN): 1 µg/mL | interaction of PAβN in combination with the labelled antibiotic (FICI) [6, 16]: synergized | Effect ([7]; PAβN + antibiotic): Synergistic | FICI ([7]; PAβN + antibiotic): 0.188 | MICb Alone [7, 17]: 128 µg/mL | MICb Combined [7, 18]: 8 µg/mL | Effect ([8]; PAβN + antibiotic): Additive | FICI ([8]; PAβN + antibiotic): 0.740 | MICb Alone [8, 17]: 0.25 µg/mL | MICb Combined [8, 18]: 0.06 µg/mL | Effect ([9]; EKO-35 acrB): Synergistic | FICI ([9]; EKO-35 acrB): 0.156 | MICb Alone ([9]; EKO-35 acrB): 1024 µg/mL | MICb Combined ([9]; EKO-35 acrB): 32 µg/mL | Effect ([9]; EKO-35 acrD): Synergistic | FICI ([9]; EKO-35 acrD): 0.313 | MICb Alone ([9]; EKO-35 acrD): 512 µg/mL | MICb Combined ([9]; EKO-35 acrD): 32 µg/mL | Effect ([10]; PAβN + antibiotic): Synergistic | FICI ([10]; PAβN + antibiotic): 0.094 | MICb Alone [10, 17]: 512 µg/mL | MICb Combined [10, 18]: 16 µg/mL | Effect ([11]; PAβN + antibiotic): Additive | FICI ([11]; PAβN + antibiotic): 0.750 | MICb Alone [11, 17]: 1 µg/mL | MICb Combined [11, 18]: 0.25 µg/mL | Effect ([12]; EKO-35 Pore, PAβN + antibiotic): Additive | FICI ([12]; EKO-35 Pore, PAβN + antibiotic): 0.630 | MICb Alone ([12]; EKO-35 Pore, antibiotic alone (PAβN checkerboard)): 1 µg/mL | MICb Combined ([12]; EKO-35 Pore, antibiotic in combination with PAβN): 0.13 µg/mL | interaction of PAβN in combination with the labelled antibiotic (FICI) ([12]; porinated efflux-deficient strains): no longer synergistic | Effect ([13]; PAβN + antibiotic): Additive | FICI ([13]; PAβN + antibiotic): 0.508 | MICb Alone [13, 17]: 16 µg/mL | MICb Combined [13, 18]: 8 µg/mL

phenylalanine-arginine-β-naphthylamide [PAβN]
PABN MICa Alone ([6]; EKO-35): 64 µg/mL | PABN MICa Alone ([6]; EKO-35, listed as PABN): 128 µg/mL | PABN MICa Combined ([6]; EKO-35, with Ciprofloxacin): 4 µg/mL | PABN MICa Combined ([6]; EKO-35, with Erythromycin): 8 µg/mL | PABN MICa Combined ([6]; EKO-35, with Fusidic Acid): 16 µg/mL | PABN MICa Combined ([6]; EKO-35, with Linezolid): 32 µg/mL | PABN MICa Combined ([6]; EKO-35, with Novobiocin): 8 µg/mL | PABN MICa Combined ([6]; EKO-35, with Oxacillin): 4 µg/mL | susceptibility to the efflux pump inhibitor alone, efflux-deficient strains vs wild-type [6, 16]: exhibits antibacterial activity, which is enhanced upon efflux inactivation | PABN MICa Alone ([7]; PAβN alone, one value per checkerboard): 256 µg/mL | PABN MICa Combined ([7]; with Ciprofloxacin): 64 µg/mL | PABN MICa Combined ([7]; with Erythromycin): 16 µg/mL | PABN MICa Combined ([7]; with Fusidic Acid): 32 µg/mL | PABN MICa Combined ([7]; with Linezolid): 16 µg/mL | PABN MICa Combined ([7]; with Novobiocin): 32 µg/mL | PABN MICa Combined ([7]; with Oxacillin): 32 µg/mL | PABN MICa Alone [8]: 64 µg/mL | PABN MICa Alone ([8]; listed as PABN): 128 µg/mL | PABN MICa Combined ([8]; with Ciprofloxacin): 64 µg/mL | PABN MICa Combined ([8]; with Erythromycin): 16 µg/mL | PABN MICa Combined ([8]; with Fusidic Acid): 32 µg/mL | PABN MICa Combined ([8]; with Linezolid): 64 µg/mL | PABN MICa Combined ([8]; with Novobiocin): 32 µg/mL | PABN MICa Combined ([8]; with Oxacillin): 64 µg/mL | PABN MICa Combined ([9]; EKO35 araC::acrB, with Linezolid): 16 µg/mL | PABN MICa Combined ([9]; EKO-35 acrB, with Erythromycin): 16 µg/mL | PABN MICa Combined ([9]; EKO-35 acrB, with Fusidic Acid): 32 µg/mL | PABN MICa Combined ([9]; EKO-35 acrB, with Novobiocin): 32 µg/mL | PABN MICa Combined ([9]; EKO-35 acrB, with Oxacillin): 16 µg/mL | PABN MICa Alone ([9]; EKO-35 acrD): 64 µg/mL | PABN MICa Alone ([9]; EKO-35 acrD, listed as PABN): 128 µg/mL | PABN MICa Combined ([9]; EKO-35 acrD, with Fusidic Acid): 8 µg/mL | PABN MICa Combined ([9]; EKO-35 acrD, with Novobiocin): 16 µg/mL | PABN MICa Combined ([9]; EKO-35 acrD, with Oxacillin): 4 µg/mL | PABN MICa Alone ([9]; EKO-35 acrEF, listed as PABN): 32 µg/mL and 64 µg/mL | PABN MICa Combined ([9]; EKO-35 acrEF, with Ciprofloxacin): 16 µg/mL | PABN MICa Combined ([9]; EKO-35 acrEF, with Erythromycin): 16 µg/mL | PABN MICa Combined ([9]; EKO-35 acrEF, with Fusidic Acid): 8 µg/mL | PABN MICa Combined ([9]; EKO-35 acrEF, with Oxacillin): 16 µg/mL | PABN MICa Alone ([9]; EKO-35 mdtEF): 64 µg/mL | PABN MICa Combined ([9]; EKO-35 mdtEF, with Erythromycin): 16 µg/mL | PABN MICa Combined ([9]; EKO-35 mdtEF, with Fusidic Acid): 8 µg/mL | PABN MICa Alone ([9]; EKO-35 mexCD): 64 µg/mL | PABN MICa Combined ([9]; EKO-35 mexCD, with Ciprofloxacin): 8 µg/mL | PABN MICa Combined ([9]; EKO-35 mexCD, with Erythromycin): 8 µg/mL | PABN MICa Combined ([10]; with Erythromycin): 16 µg/mL | PABN MICa Combined ([10]; with Fusidic Acid): 32 µg/mL | PABN MICa Combined ([10]; with Linezolid): 16 µg/mL | PABN MICa Combined ([10]; with Novobiocin): 16 µg/mL | PABN MICa Combined ([10]; with Oxacillin): 16 µg/mL | PABN MICa Combined ([11]; with Ciprofloxacin): 8 µg/mL | PABN MICa Combined ([11]; with Erythromycin): 16 µg/mL | PABN MICa Combined ([11]; with Fusidic Acid): 8 µg/mL | PABN MICa Combined ([11]; with Linezolid): 32 µg/mL | PABN MICa Combined ([11]; with Novobiocin): 8 µg/mL | PABN MICa Combined ([11]; with Oxacillin): 32 µg/mL | PABN MICa Alone ([12]; EKO-35 Pore, PAβN alone, one value per checkerboard, listed as PABN): 64 µg/mL and 32 µg/mL | PABN MICa Combined ([12]; EKO-35 Pore, with Ciprofloxacin): 2 µg/mL | PABN MICa Combined ([12]; EKO-35 Pore, with Erythromycin): 8 µg/mL | PABN MICa Combined ([12]; EKO-35 Pore, with Fusidic Acid): 16 µg/mL | PABN MICa Combined ([12]; EKO-35 Pore, with Linezolid): 32 µg/mL | PABN MICa Combined ([12]; EKO-35 Pore, with Novobiocin): 16 µg/mL | PABN MICa Combined ([12]; EKO-35 Pore, with Oxacillin): 32 µg/mL | PABN MICa Combined ([13]; with Ciprofloxacin): 256 µg/mL | PABN MICa Combined ([13]; with Erythromycin): 64 µg/mL | PABN MICa Combined ([13]; with Fusidic Acid): 32 µg/mL | PABN MICa Combined ([13]; with Linezolid): 32 µg/mL | PABN MICa Combined ([13]; with Novobiocin): 2 µg/mL | PABN MICa Combined ([13]; with Oxacillin): 64 µg/mL
